In the supplement of paper PMC6045584 one finds surviving fraction data, which are given here for seven test systems.

Compound in assay [1]: NC1(c2ccc(-c3nc4ccn5c(=O)[nH]nc5c4cc3-c3ccccc3)cc2)CCC1 [MK2206]
Briefly: surviving fraction relative to DMSO-only wells; higher = less growth inhibition. As to conditions: exposure time: 5 days. The procedure, abridged: (§1)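 Surviving fraction was calculated by normalising CellTiter-Glo luminescence to the median of DMSO-only wells. Tumour cell lines in log phase were seeded in 384-well plates at 250–500 cells per well, and 24 hours later were exposed continuously for five days to inhibitors at 0.5, 1, 5, 10, 50, 100, 500 and 1000 nM.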

Compound in assay [2]: O=C(O)CC[C@H]1CC[C@@](c2cc(F)ccc2F)(S(=O)(=O)c2ccc(Cl)cc2)CC1 [MK0752]
Described as above. Conditions: exposure time: 5 days. Summed up:
as §1

± gives the standard deviation of the averaged measurements.

C33A CERVIX: the surviving fraction in assay [1] (0.5 nM) came out at 0.919 ± 0.03; in assay [1] (1 nM), 0.917 ± 0.026; in assay [1] (5 nM), 1.05 ± 0.085; in assay [1] (10 nM) it was 0.929 ± 0.029; in assay [1] (50 nM) it was 1.01 ± 0.063; in assay [1] (100 nM) it was 0.925 ± 0.058. Also, the surviving fraction in assay [1] (500 nM) stood at 0.812 ± 0.084; in assay [1] (1000 nM), 0.817 ± 0.042; in assay [2] (0.5 nM), 1.12 ± 0.13; in assay [2] (1 nM), 1.11 ± 0.08; in assay [2] (5 nM), 1.06 ± 0.14; in assay [2] (10 nM) it was 1.19 ± 0.083. In addition, the surviving fraction came to 1.09 ± 0.066 in assay [2] (50 nM), 1.19 ± 0.18 in assay [2] (100 nM), 1.08 ± 0.16 in assay [2] (500 nM) and 1.13 ± 0.1 in assay [2] (1000 nM).

Regarding CAL72 BONE, the surviving fraction in assay [1] (0.5 nM) is 1.1 ± 0.024; in assay [1] (1 nM), 1.1 ± 0.11; in assay [1] (5 nM), 1.12 ± 0.06; in assay [1] (10 nM) it was 1.11 ± 0.1; in assay [1] (50 nM), 1.12 ± 0.019; in assay [1] (100 nM) it was 1.16 ± 0.096. The surviving fraction worked out at 1.06 ± 0.087 in assay [1] (500 nM); 1.05 ± 0.053 in assay [1] (1000 nM); 1.04 ± 0.025 in assay [2] (0.5 nM); 1.1 ± 0.043 in assay [2] (1 nM); 1.084 ± 0.0046 in assay [2] (5 nM); 1.09 ± 0.021 in assay [2] (10 nM). The surviving fraction in assay [2] (50 nM) came to 1.11 ± 0.018; in assay [2] (100 nM) it was 1.14 ± 0.034; in assay [2] (500 nM), 1.102 ± 0.011; in assay [2] (1000 nM), 1.12 ± 0.04.

For the test system G292 BONE, the surviving fraction in assay [1] (0.5 nM) was found to be 0.96 ± 0.031; in assay [1] (1 nM), 1.01 ± 0.06; in assay [1] (5 nM) it was 0.997 ± 0.033; in assay [1] (10 nM) it was 0.992 ± 0.031; in assay [1] (50 nM), 0.893 ± 0.041; in assay [1] (100 nM), 0.833 ± 0.018. In addition, the surviving fraction was 0.748 ± 0.054 in assay [1] (500 nM); 0.724 ± 0.026 in assay [1] (1000 nM); 0.974 ± 0.015 in assay [2] (0.5 nM); 1.03 ± 0.053 in assay [2] (1 nM); 1.05 ± 0.033 in assay [2] (5 nM); 1.05 ± 0.013 in assay [2] (10 nM). Moreover, the surviving fraction in assay [2] (50 nM) amounted to 1.01 ± 0.018; in assay [2] (100 nM), 0.989 ± 0.019; in assay [2] (500 nM) it was 0.914 ± 0.037; in assay [2] (1000 nM) it was 0.86 ± 0.037.

Regarding HCC1395 BREAST, the surviving fraction worked out at 1.08 ± 0.18 in assay [1] (0.5 nM); 0.985 ± 0.056 in assay [1] (1 nM); 1.09 ± 0.16 in assay [1] (5 nM); 1.04 ± 0.19 in assay [1] (10 nM); 0.934 ± 0.057 in assay [1] (50 nM); 1.1 ± 0.13 in assay [1] (100 nM). Also, the surviving fraction in assay [1] (500 nM) worked out at 0.89 ± 0.082; in assay [1] (1000 nM), 0.817 ± 0.15; in assay [2] (0.5 nM) it was 1.09 ± 0.017; in assay [2] (1 nM), 0.987 ± 0.16; in assay [2] (5 nM), 1.08 ± 0.036; in assay [2] (10 nM) it was 1.1 ± 0.099. The surviving fraction is 1.06 ± 0.011 in assay [2] (50 nM), 1.06 ± 0.15 in assay [2] (100 nM), 0.975 ± 0.028 in assay [2] (500 nM) and 0.925 ± 0.12 in assay [2] (1000 nM).

In the case of HUO3N1 BONE, the surviving fraction was determined as 1.03 ± 0.072 in assay [1] (0.5 nM); 1.02 ± 0.045 in assay [1] (1 nM); 1.02 ± 0.052 in assay [1] (5 nM); 1.02 ± 0.051 in assay [1] (10 nM); 0.897 ± 0.044 in assay [1] (50 nM); 0.825 ± 0.036 in assay [1] (100 nM). Also, the surviving fraction in assay [1] (500 nM) came to 0.67 ± 0.023; in assay [1] (1000 nM), 0.64 ± 0.014; in assay [2] (0.5 nM), 1.02 ± 0.023; in assay [2] (1 nM) it was 1.03 ± 0.021; in assay [2] (5 nM), 1.051 ± 0.0083; in assay [2] (10 nM), 1.08 ± 0.042. The surviving fraction came out at 1.07 ± 0.042 in assay [2] (50 nM), 1.08 ± 0.052 in assay [2] (100 nM), 1.01 ± 0.02 in assay [2] (500 nM) and 0.9563 ± 0.0042 in assay [2] (1000 nM).

Take LNCAP PROSTATE: the surviving fraction is 0.974 ± 0.07 in assay [1] (0.5 nM); 0.936 ± 0.075 in assay [1] (1 nM); 0.87 ± 0.015 in assay [1] (5 nM); 0.839 ± 0.092 in assay [1] (10 nM); 0.529 ± 0.022 in assay [1] (50 nM); 0.398 ± 0.0075 in assay [1] (100 nM). In addition, the surviving fraction in assay [1] (500 nM) stood at 0.0787 ± 0.0097; in assay [1] (1000 nM), 0.071 ± 0.0017; in assay [2] (0.5 nM), 0.936 ± 0.14; in assay [2] (1 nM), 0.927 ± 0.12; in assay [2] (5 nM), 1.03 ± 0.26; in assay [2] (10 nM), 0.887 ± 0.09. Further, the surviving fraction came to 1.01 ± 0.098 in assay [2] (50 nM), 1.02 ± 0.074 in assay [2] (100 nM), 1.04 ± 0.21 in assay [2] (500 nM) and 1.01 ± 0.12 in assay [2] (1000 nM).

Take SCC003 HEADNECK: the surviving fraction in assay [1] (0.5 nM) was found to be 1.09 ± 0.063; in assay [1] (1 nM), 1.08 ± 0.049; in assay [1] (5 nM) it was 1.07 ± 0.053; in assay [1] (10 nM), 1.07 ± 0.14; in assay [1] (50 nM), 1.03 ± 0.021; in assay [1] (100 nM) it was 1.09 ± 0.12. Also, the surviving fraction in assay [1] (500 nM) came out at 0.884 ± 0.05; in assay [1] (1000 nM), 0.717 ± 0.068; in assay [2] (0.5 nM) it was 1.19 ± 0.02; in assay [2] (1 nM), 1.12 ± 0.15; in assay [2] (5 nM), 1.14 ± 0.045; in assay [2] (10 nM), 1.13 ± 0.055. Besides, the surviving fraction came to 1.19 ± 0.12 in assay [2] (50 nM), 1.24 ± 0.11 in assay [2] (100 nM), 1.19 ± 0.13 in assay [2] (500 nM) and 1.2 ± 0.039 in assay [2] (1000 nM).
